A short description of series [1]: Measurement of absorption and emission spectra of free dyes or dye-protein conjugates. It is filed as physicochemical. To be noted: for Absorption Wavelengths / Emission Wavelengths: in PBS. The procedure:
The absorption spectra of free dyes or dye-antibody conjugates were measured on Beckman Coulter DU800 in pH 7.4 PBS. The concentrations of the dyes or conjugates were adjusted so that the maximal absorbance was around 1.0. The fluorescence emission spectra of the free dyes and conjugates were measured on a Hitachi F4500.

The nature of series [2]: Photostability comparison of dye-antibody conjugates on stained fixed Jurkat cells (microscopy, Cy5 filter set). It is filed as physicochemical. The following applies: for photostability: goat anti-mouse IgG conjugates on fixed Jurkat cells, continuous illumination, relative fluorescence vs. time (FIG. 5). The method, then: Jurkat cells were fixed and stained with intracellular mouse anti-human CD3 primary antibody (0.375 ug) followed by 1 ug of goat-anti-mouse IgG conjugated to AlexaFluor633 (DOL 2.3), compound No. 6 (DOL 2.3), DyLight649 (DOL˜6), or Alexa Fluor 647 (DOL˜6). The DOL for each conjugate was the optimal value for each dye. Images were taken on an Olympus mercury arc lamp microscope using a Cy5 filter set. The relative fluorescence vs. time for each sample was plotted (FIG. 5). Traditionally, sulfonated cyanine dyes, such as Alexa Fluor 647 and DyLight 647, have been used for the 633 nm excitation by the HeNe laser with red emission. More recently, rhodamine-based Alexa Fluor 633 dye has become commercially available.

The nature of series [3]: Measurement of absorption and emission spectra of free dyes or dye-protein conjugates. It is filed as physicochemical. To be noted: in MeOH.
In a further series the test system is HeLa cells. As to the kind of experiment: Mitochondrial staining of live HeLa cells. It is filed as cell-based. The following applies: 200 nM compound No. 16 or 10 uM compound No. 74, DMEM, 30 minutes, 37° C. (FIG. 9). The procedure:
HeLa cells were cultured for 2 days at 37° C., 5% CO2. Live cells were stained with 200 nM compound No. 16 or 10 uM compound No. 74 in DMEM media for 30 minutes at 37° C., 5% CO2. Cells were washed in fresh medium and cells were viewed on a mercury arc lamp microscope using a Cy5 filter set. Images were taken using a CCD camera and Image Pro Express software.

The test system of another series is Jurkat cells. As to the kind of experiment: Mitochondrial staining as a function of membrane potential (flow cytometry, with/without CCCP). Type of series: cell-based. To be noted: 50 nM dye with and without 50 uM CCCP, 30 minutes, FL4 channel (FIG. 10). The method, then: Live Jurkat cells were stained with 50 nM Compound No. 16 with and without 50 uM carbonyl cyanide m-chlorophenyl hydrozone (CCCP) for 30 minutes prior to analysis by flow cytometry on the FL4 channel of a BD FACS Calibur. Treatment with CCCP disrupts the mitochondrial membrane potential. The graph depicts the relative geometric mean fluorescence of the stained population treated without (Control) or with 50 uM CCCP. […] The membrane potential-dependent mitochondrial staining by compound No. 16 makes the dye useful for assessing the health of cells as only healthy cells have functional mitochondria and have normal membrane potential. For example, cells undergoing apoptosis are known to lose membrane potential.
A general note: Flow cytometry measures light scatter and fluorescence of single cells or particles in a stream.

For series [4] the following is noted: cited from earlier work; for absorption wavelength: commercial cyanine dyes used for the 633 nm laser.
Where [5] appears, read: known xanthene dyes, background.

The values below come from patent US10053484B2, “Heterocycle-substituted xanthene dyes” (Biotium, Inc., priority 2009, dated 2018).

“Also recorded” adds a separate entry of the source.

Take `CC1N=c2c(cc3c(c2S(=O)(=O)O)Oc2c(cc4c(c2S(=O)(=O)O)NC(C)C4(C)C)C=3c2nccn2CCCCCC(=O)ON2C(=O)CCC2=O)C1(C)C` (centres unmarked) [Compound No. 1]: in series [1], the “Absorption Wavelengths” value stood at 548 nm and the “Emission Wavelengths” value turned out to be 571 nm.
Consider `CC1CC(C)(C)Nc2c1cc1c(c2S(=O)(=O)O)Oc2c(S(=O)(=O)O)c3c(cc2=C1c1nccn1CCCCCC(=O)ON1C(=O)CCC1=O)C(C)CC(C)(C)N=3` (centres unmarked) [Compound No. 2], for which, in series [1], the “Absorption Wavelengths” value amounted to 559 nm and the “Emission Wavelengths” value is listed as 579 nm.
The like results for `CC1CC(C)(C)Nc2c1cc1c(c2S(=O)(=O)O)Oc2c(S(=O)(=O)O)c3c(cc2=C1c1[nH]cnc1C(=O)O)C(C)CC(C)(C)N=3` (centres unmarked) [Compound No. 3] were, in that order, 529 nm and 548 nm.
The corresponding values for `CC1(C)C=C(CS(=O)(=O)O)c2cc3c(cc2=N1)Oc1cc2c(cc1C=3c1nccn1CCCCCC(=O)ON1C(=O)CCC1=O)C(CS(=O)(=O)O)=CC(C)(C)N2` [Compound No. 4] are 603 nm and 626 nm.
The like results for `CCN1c2cc3c(cc2C(CS(=O)(=O)[O-])=CC1(C)C)C(c1nccn1CCCCCC(=O)ON1C(=O)CCC1=O)=c1cc2c(cc1O3)=[N+](CC)C(C)(C)C=C2CS(=O)(=O)O` [Compound No. 5] were, in that order, 622 nm and 649 nm.
Regarding `CCN1c2cc3c(cc2C(CS(=O)(=O)O)=CC1(C)C)C(c1nccn1CCCCCC(=O)NCCOCCOCCOCCOCCOCCOCCOCCOCCOCCOCCOCCOC(=O)ON1C(=O)CCC1=O)=c1cc2c(cc1O3)=[N+](CC)C(C)(C)C=C2CS(=O)(=O)[O-]` [Compound No. 6], the absorption peak entry in series [1] (FIG. 1: conjugated to goat anti-mouse IgG in PBS) was “about 633 nm”. For the same compound, in series [1], the “Absorption Wavelengths” value stood at 622 nm and the “Emission Wavelengths” value amounted to 649 nm. Besides, the photostability result in series [2] is recorded as “significantly more photostable than DyLight 633; also recorded: approximately similar stability to that of Alexa Fluor 633; also recorded: very photostable”.
As to `CC1(C)C=C(CS(=O)(=O)[O-])c2cc3c(c4c2N1CCC4)Oc1c2c4c(cc1=C3c1nccn1CCCCCC(=O)ON1C(=O)CCC1=O)C(CS(=O)(=O)O)=CC(C)(C)[N+]=4CCC2` [Compound No. 7], in series [1], the “Absorption Wavelengths” value was 638 nm and the “Emission Wavelengths” value worked out at 660 nm.
Consider `CCN1c2cc3c(cc2C(C)=CC1(C)C)C(c1nccn1Cc1ccc(CCl)cc1)=c1cc2c(cc1O3)=[N+](CC)C(C)(C)C=C2C.[Cl-]` [Compound No. 9], for which, in series [1], the “Absorption Wavelengths” value was 622 nm and the “Emission Wavelengths” value is listed as 648 nm.
In the case of `CCN1c2cc3c(cc2C(C)=CC1(C)C)C(c1nccn1C)=c1cc2c(cc1O3)=[N+](CC)C(C)(C)C=C2C` [Compound No. 16], in series [3], the “Absorption Wavelengths” value amounted to 622 nm and the “Emission Wavelengths” value is 648 nm. Moreover, the “localization of dye in live cells” value with HeLa cells is given as “concentrated in the mitochondria”. For the same compound, the “membrane potential dependence of mitochondrial staining” value in the series on Jurkat cells is listed as “stains mitochondria in a membrane potential-dependent fashion; also recorded: sensitive to disruption of the mitochondrial membrane potential”.
For `CC1CC(C)(C)Nc2c1cc1c(c2S(=O)(=O)[O-])Oc2c(S(=O)(=O)O)c3c(cc2=C1c1n(CCCCCC(=O)ON2C(=O)CCC2=O)cc[n+]1C)C(C)CC(C)(C)N=3` (centres unmarked) [Compound No. 29], in series [1], the “Absorption Wavelengths” value is given as 592 nm and the “Emission Wavelengths” value was 615 nm.
As for `CCN1c2cc3c(cc2C(C)=CC1(C)C)C(c1nc2ccccc2n1C)=c1cc2c(cc1O3)=[N+](CC)C(C)(C)C=C2C.[Cl-]` [Compound No. 70], in series [3], the “Absorption Wavelengths” value is on record as 628 nm and the “Emission Wavelengths” value was found to be 656 nm.
With `CCN1c2cc3c(cc2C(C)=CC1(C)C)C(c1n(C)cc[n+]1C)=c1cc2c(cc1O3)=[N+](CC)C(C)(C)C=C2C` [Compound No. 74], in series [3], the “Absorption Wavelengths” value is on record as 660 nm and the “Emission Wavelengths” value worked out at 688 nm. Moreover, the “localization of dye in live cells” value with HeLa cells is given as “concentrated in the mitochondria”.
On to `CC1(C)C=C(CS(=O)(=O)[O-])c2cc3c(c4c2N1CCC4)Oc1c2c4c(cc1=C3c1n(CCCCCC(=O)ON3C(=O)CCC3=O)cc[n+]1CCCS(=O)(=O)O)C(CS(=O)(=O)[O-])=CC(C)(C)[N+]=4CCC2` [Compound No. 75], for which, in series [1], the “Absorption Wavelengths” value worked out at 680 nm and the “Emission Wavelengths” value turned out to be 701 nm.
For `CCN1/C(=C/C=C/C=C/C2=[N+](CCCCCC(=O)O)c3ccc(S(=O)(=O)O)cc3C2(C)C)C(C)(C)c2cc(S(=O)(=O)[O-])ccc21` [Cy5], in series [4], the absorption wavelength is roughly 650 nm.
On to `CCN1c2cc3c(cc2C(CS(=O)(=O)[O-])=CC1(C)C)C(c1nccn1CCCCCC(=O)ON1C(=O)CCC1=O)=c1cc2c(cc1O3)=[N+](CCCS(=O)(=O)O)C(C)(C)C=C2CS(=O)(=O)O` [compound 10], for which, in series [1], the “Absorption Wavelengths” value was found to be 622 nm and the “Emission Wavelengths” value came to 649 nm.
`N=c1ccc2c(-c3[nH]cnc3C(=O)O)c3ccc(N)cc3oc-2c1` [compound 21]: in series [1], the “Absorption Wavelengths” value is 485 nm and the “Emission Wavelengths” value was 508 nm.
The corresponding values for `CCN1c2cc3c(cc2C(C)=CC1(C)C)C(c1ccncc1C(=O)[O-])=c1cc2c(cc1O3)=[N+](CCCCCC(=O)O)C(C)(C)C=C2C` [compound 23] are 599 nm and roughly 620 nm.
As for `CC1(C)C=C(CS(=O)(=O)O)c2cc3c(cc2=N1)Oc1cc2c(cc1C=3c1n(CCCCCC(=O)ON3C(=O)CCC3=O)cc[n+]1CCCS(=O)(=O)O)C(CS(=O)(=O)[O-])=CC(C)(C)N2` [compound 71], in series [1], the “Absorption Wavelengths” value turned out to be 642 nm and the “Emission Wavelengths” value is 662 nm.
The corresponding values for `CCN1c2cc3c(cc2C(CS(=O)(=O)[O-])=CC1(C)C)C(c1n(CC(=O)N2CCC(C(=O)ON4C(=O)CCC4=O)CC2)cc[n+]1CCCS(=O)(=O)O)=c1cc2c(cc1O3)=[N+](CC)C(C)(C)C=C2CS(=O)(=O)[O-]` [compound 72] are 660 nm and 681 nm.
As for `CC1CC(C)(C)Nc2c1cc1c(c2S(=O)(=O)[O-])Oc2c(S(=O)(=O)O)c3c(cc2=C1c1n(CCCCCC(=O)ON2C(=O)CCC2=O)cc[n+]1CCCS(=O)(=O)O)C(C)CC(C)(C)N=3` (centres unmarked) [compound 76], in series [1], the “Absorption Wavelengths” value is listed as 593 nm and the “Emission Wavelengths” value amounted to 614 nm.
For the compound `C/N=c1\cc2oc3cc(NC)c(S(=O)(=O)O)cc3c(-c3nccn3CCCCCC(=O)O)c-2cc1S(=O)(=O)O` [compound 77], the “Absorption Wavelengths” value in series [1] was found to be 578 nm⁻¹.
For the compound `O=C(O)CCCCCn1ccnc1-c1c2cc/c(=N/CC(F)(F)F)cc-2oc2cc(NCC(F)(F)F)ccc12` [compound 84], in series [1], the “Absorption Wavelengths” value was 533 nm and the “Emission Wavelengths” value worked out at 550 nm.
Turning to `CCN1c2cc3c(cc2C(C)=CC1(C)C)C(c1nccs1)=c1cc2c(cc1O3)=[N+](CC)C(C)(C)C=C2C` [compound 85], in series [1], the “Absorption Wavelengths” value is 627 nm and the “Emission Wavelengths” value amounted to 698 nm.
The corresponding values for `CCN1c2cc3c(cc2C(C)=CC1(C)C)C(c1cocn1)=c1cc2c(cc1O3)=[N+](CC)C(C)(C)C=C2C` [compound 87] are 647 nm and 676 nm.
On to Alexa Fluor 647 [reference compound], for which the “time to being essentially totally bleached” value in series [2] (goat anti-mouse IgG conjugates on fixed Jurkat cells (FIG. 5)) was “about 1 minute”. Also, the photostability result in series [2] was “poor photostability”. Moreover, the absorption wavelength in series [4] is given as roughly 650 nm.
In the case of carboxy-rhodamine 110, in series [4] (setting [5]), the absorption maxima is 502 nm and the emission maxima is listed as 524 nm.
